Laboratory results reported in US8546406B2, “Heterocyclic compounds as metap-2 inhibitors” (Merck Patent GmbH, priority 2009, dated 2013).

Assays:
[1] = biological target: MetAP-2 (Homo sapiens, UniProt P50579); assay: MetAP-2 activity measurement (coupled enzymatic reactions, substrate Met-Arg-Ser, photometric at 450 nm); assay type: biochemical; settings: Inhibition of MetAP-2; read-out: IC50 enzyme
Experimental: The MetAP-2 activity is determined by coupling enzymatic reactions. The tripeptide Met-Arg-Ser (MAS) is employed as substrate. The methionine liberated is firstly converted into Metox and H2O2 by L-aminooxidase (AAO). In the second step, the peroxidase (POD) with the aid of the H2O2 catalyses the oxidation of the leukodye dianisidine to dianisidineox, the increase of which is detected photometrically at 450 nm.
MetAP-2 activity can be recorded continuously as kinetics. The reaction scheme illustrates that one mol of dianisidineox is formed per mol of methionene. The MetAP-2 enzyme activity can therefore be calculated directly as Δ absorption per time unit. Qualification of the MetAP-2 activity (mol of Met/time unit) is possible with the aid of the dianisidineox extinction coefficient. The change in extinction per time unit is depicted graphically and a slope calculation is carried out in the visually linear region of the reaction.

MetAP-2, sequence (P50579 whole entry, species assumed): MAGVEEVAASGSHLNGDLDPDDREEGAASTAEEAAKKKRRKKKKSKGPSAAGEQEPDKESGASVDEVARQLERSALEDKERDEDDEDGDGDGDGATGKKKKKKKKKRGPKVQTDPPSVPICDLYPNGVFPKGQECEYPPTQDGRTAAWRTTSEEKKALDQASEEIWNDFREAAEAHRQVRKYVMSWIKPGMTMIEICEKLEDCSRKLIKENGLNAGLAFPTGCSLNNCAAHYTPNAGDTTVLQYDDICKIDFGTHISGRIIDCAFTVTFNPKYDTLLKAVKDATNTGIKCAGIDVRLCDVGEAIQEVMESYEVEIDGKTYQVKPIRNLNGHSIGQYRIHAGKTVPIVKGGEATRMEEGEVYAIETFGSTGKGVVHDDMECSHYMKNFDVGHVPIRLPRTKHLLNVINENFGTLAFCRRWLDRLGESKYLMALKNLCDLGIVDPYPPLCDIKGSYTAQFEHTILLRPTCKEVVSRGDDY

Row | Structure (SMILES) | IC50 [1] [µM] | melting point [°C]
1 | c1cnn(-c2ccnc3ncnn23)c1 [Compound A2, 7-pyrazol-1-yl-[1,2,4]triazolo[1,5-a]pyrimidine] | > 10 | 191 to 193
2 | c1cc(OC[C@H]2CCCN2c2ccnc3ncnn23)c2cccnc2c1 [Compound A5, 5-((R)-1-[1,2,4]triazolo[1,5-a]pyrimidin-7-ylpyrrolidin-2-ylmethoxy)quinoline] | 0.01 to 1 | 93 to 95
3 | O=C(OC[C@H]1CCCN1c1ccnc2ncnn12)c1cccc(OC(F)(F)F)c1 [Compound A82, (R)-1-[1,2,4]Triazolo[1,5-a]pyrimidin-7-yl-pyrrolidin-2-ylmethyl 3-trifluoromethoxy-benzoate] | 0.01 to 1 | –
4 | OC[C@H]1CCCN1c1ccnc2ncnn12 [Compound A83] | 0.01 to 1 | –
5 | O=S(=O)(NC[C@H]1CCCN1c1ccnc2ncnn12)c1ccc(F)cc1 [Compound A84] | 1 to 10 | –
